Measured values published in patent US10675244B2, “Microvesicles derived from nucleated, mammalian cells and use thereof” (MDIMUNE INC., priority 2009, dated 2020).

What was measured:
[1] = 6 hours after tail vein injection; 100 μg microvesicles or 30 μg doxorubicin
Protocol: After cultivation for 10 days, PBS, PBS containing 100 μg of the extruded microvesicles (doxorubicin-microvesicle), or PBS containing 30 μg of doxorubicin was injected at a dose of 100 μl into mice via the tail vein.
Six hours after the injection, cancer tissue, the spleen and the heart were excised from the mice and fixed for 24 hours in 4% paraformaldehyde. For dehydration, the fixed tissues were immersed once in 70% ethanol, four times in 95% ethanol, three times in 100% ethanol, and three times in 100% xylene, each time for one hour in all cases. Thereafter, the tissues were embedded in paraffin, cut into sections 4 μm thick, and attached onto slide glass. The paraffin was melted by incubation at 60° C. for one hour. For hydration, the tissues were immersed three times in 100% xylene, four times in 100% ethanol, and three times in 95% ethanol, each time for one min in all cases, followed by storage for 5 min in flowing water.
After the hydration, the tissues were subjected to immunohistochemistry to examine whether doxorubicin was delivered to each tissue. In this regard, antigen retrieval was performed using a microwave method. The tissues were placed in 10 mM sodium citrate buffer and irradiated three times, each for five min, with microwaves. The tissues were cooled in flowing water and blocked for 2 hours with TBS containing 5% horse serum and 0.02% Triton X-100. […]

[2] = White blood cell count in blood of treated mice; assay type: in vivo; details: 60 μg of doxorubicin daily
Protocol: Mice were anesthetized by abdominal injection of 150 μL of an anesthetic comprising a mixture of 1:3:6 ketamine:rumpon:PBS, and blood samples were taken from the heart and placed in tubes containing an anti-coagulant agent. A mixture of 10 μL of blood and 90 μL of 1% HCl was stored at room temperature for 7 min, and after 10 μL of the mixture was put into a hematocytometer, and white cells were counted.

Mouse colon 26 cell line = test: Growth of colon 26 cancer tissue, comparison with doxorubicin (Example 21); assay type: in vivo, mice
Protocol: The mouse colon 26 cell line used in Example 18 was subcutaneously injected at a dose of 1×10^6 cells into mice and cultured for 5 days.
After cultivation for 5 days, PBS, PBS containing 10 μg of the extruded microvesicles loaded with 3 μg of doxorubicin (doxorubicin-microvesicle), or PBS containing 3, 15 or 60 μg of doxorubicin was injected at a dose of 100 μl once every day via the tail vein into mouse groups, each consisting of 5. The volume of cancer tissue was monitored once every two days. The tumor volume was calculated by the equation v=1s^2/2 wherein (1) is a length of the longest axis of a tumor and (s) is a length of the axis perpendicular to the longest axis.

doxorubicin delivered to the heart [1]: delivered in a large amount to the heart
doxorubicin in cancer blood vessels [1]: cannot by itself be delivered
reduction of white blood cell count compared to the control [2]: at least 50%
Structure (SMILES): COc1cccc2c1C(=O)c1c(O)c3c(c(O)c1C2=O)C[C@@](O)(C(=O)CO)C[C@@H]3O[C@H]1C[C@H](N)[C@H](O)[C@H](C)O1 [doxorubicin]
equi-effective doxorubicin dose relative to the load of doxorubicin on the microvesicles (Mouse colon 26 cell line; 60 μg versus 3 μg load): 20 fold
dose of doxorubicin alone with the same therapeutic effect as the doxorubicin-loaded microvesicles (Mouse colon 26 cell line; daily tail vein injection, colon 26 tumor): 60 µg
